Counter-ions that a name gives are not always drawn. A value given as a limit tells only on which side of the number the result lay.

The nature of data set [1]: Solubility screen of methylone hydrochloride in solvents. The class given is physicochemical. Particulars: thermodynamic from solid, visual. Here is the method: The experiments were carried out by adding the test solvent in aliquots to weighed portions of solid. Whether dissolution had occurred was judged by visual inspection after addition of each solvent aliquot. Solubility numbers recorded in Table 4 were calculated by dividing the weight of the sample by the total amount of solvent used to dissolve the sample. The actual solubilities may be greater than the numbers calculated because of the use of solvent aliquots that were too large or because of slow dissolution rates. All solubility measurements were carried out at room temperature unless noted otherwise.

Data set [2] relates to participants diagnosed with at least moderate post-traumatic stress disorder (PTSD). The data set is described as follows: Double-blind, randomized, placebo-controlled clinical trial of methylone-assisted psychotherapy in PTSD. The class given is in vivo, human. The note with it: for CAPS-5 assessments: Intervening Session 1C, 2C, 3C and Study Conclusion; for daytime sleepiness as measured by ESS / change in CAPS-5 assessment / clinician-rated functional impairment score as measured by SDS / depression as measured by HAM-D: at Study Conclusion; for change in CAPS-5 assessment: vs placebo group, with psychotherapy. Here is the method:
A multicenter, randomized, double-blind, placebo-controlled trial is conducted to assess the efficacy and safety of methylone-assisted psychotherapy versus psychotherapy with placebo control in participants diagnosed with at least moderate post-traumatic stress disorder (PTSD).
This multicenter, randomized, double-blind, placebo-controlled trial is conducted at various sites in the United States with IRB approval from each study site. A flexible dose of methylone hydrochloride salt or placebo, followed by a supplemental half-dose unless contraindicated by patient's previous response or medical history, is also administered during the Treatment Period with psychotherapy in at least 3 blinded monthly Experimental Sessions. The Supplemental Dose extends the duration of drug effects on the participants during an Experimental Session. Methylone test groups are further subdivided into specific groups receiving only racemic methylone hydrochloride salt, S-methylone hydrochloride salt, or R-methylone hydrochloride salt. An optional Risk Evaluation and Mitigation Strategy (REMS) Protocol may be implemented for the racemic methylone, S-methylone, and placebo-groups. The Treatment Period lasts for approximately 12 weeks. During the Treatment Period, each Experimental Session is followed by three Intervening Sessions of non-drug psychotherapy. Each Experimental Session involves an overnight stay. The Primary Outcome measure, the change in Clinician Administered PTSD Scale for DSM-5 (CAPS-5), is determined by a blinded Independent Rater (IR) pool multiple times throughout the study. The study consists of separate periods for each participant. Initially, prospective participants undergo a Screening Period involving an initial eligibility assessment, a medical history intake, informed consent, and enrollment of eligible participants. Next, a Preparation Period is undertaken for enrolled participants involving medication tapering and clinical baseline assessments to confirm each participant meets enrollment criteria. As part of the Preparation Period, a detailed assessment of co-morbidities to PTSD is recorded. Participants may remain on prescribed courses of selective serotonin reuptake inhibitor (SSRI) or serotonin and norepinephrine reuptake inhibitor (SNRI) treatment. Dosages and/or frequency of administration of a prescribed SSRI or SNRI may be adjusted to fit within study parameters. Participants may be required to taper a prescribed course of medication in order to maintain eligibility within the study. The Treatment Period consists of three monthly Experimental Sessions and associated Intervening Sessions of integrative behavioral psychotherapy. The Treatment Period lasts approximately 12 weeks. Following the Treatment Period is a Follow-up Period and Study Conclusion. During the Follow-up Period and Study Conclusion, participants complete 4 weeks with no study visits, followed by a Study Conclusion visit.
This study compares the effects of three blinded Experimental Sessions of psychotherapy in combination with flexible doses of methylone or placebo administered as described below. Non-drug preparatory and intervening psychotherapy sessions are also included. Patient's weight is determined for dosage calculation. Initial dose is 100 mg unless this will result in a dosage of less than 1.5 mg/kg of patient weight. Initial dose thereby adjusted upward in 25 mg increments to deliver the lowest dose possible of at least 1.5 mg/kg of patient weight. Initial dose for Experimental Session 2 and 3 is cumulative dose calculated by adding the initial dose plus REMS protocol dose used the previous Experimental Session for each patient.
Randomization occurs prior to the initiation of Experimental Session 1. Each participant is provided the next randomized number in a sequence by a blinded study monitor. […]

The nature of data set [3]: Dynamic vapor sorption (DVS). The class given is physicochemical. Here is the method:
The sample for moisture analysis was allowed to dry at 25° C. for up to 4 hours under a stream of dry nitrogen. The relative humidity is then increased stepwise from 10 to 90% relative humidity (adsorption scan) allowing the sample to equilibrate for a maximum of four hours before weighing and moving on to the next step. The desorption scan is measured from 85 to 0% relative humidity with the same equilibration time. The sample is then dried under a stream of dry nitrogen at 80° C. for 2 hours or until no weight loss is observed.
DVS analysis was carried out using a TA Instruments Q5000 Dynamic Vapor Sorption analyzer. The instrument was calibrated with standard weights and a sodium bromide standard for humidity. Approximately 10-25 mg of sample was loaded into a metal-coated quartz pan for analysis. The sample was analyzed at 25° C. with a maximum equilibration time of one hour in 10% relative humidity (RH) steps from 5 to 95% RH (adsorption cycle) and from 95 to 5% RH (desorption cycle). The movement from one step to the next occurred either after satisfying the equilibrium criterion of 0.01% weight change or, if the equilibrium criterion was not met, after one hour. The percent weight change values were calculated.

As usually defined, the solubility is the dissolved amount per volume that the medium holds. In the case of `CNC(C)C(=O)c1ccc2c(c1)OCO2` (racemic) [(rac)-Methylone Hydrochloride, 3,4-methylenedioxy-N-methylcathinone hydrochloride], the solubility in data set [1] (acetonitrile, organic solvent or mixture, ACN, room temperature) was < 1000 µg/mL; in data set [1] (chloroform, organic solvent or mixture, CHCl3, room temperature), < 1000 µg/mL; in data set [1] (ethanol, organic solvent or mixture, EtOH, room temperature), 8000 µg/mL; in data set [1] (ethyl acetate (wet), organic solvent or mixture, EtOAc (wet), room temperature) it was 9000 µg/mL; in data set [1] (methanol, organic solvent or mixture, MeOH, room temperature) it was 48000 µg/mL; in data set [1] (methanol/chloroform 50/50, organic solvent or mixture, MeOH/CHCl3 50/50, room temperature) it was 45000 µg/mL. In addition, the solubility in data set [1] (organic solvent or mixture, Acetone, room temperature) is < 1000 µg/mL; in data set [1] (organic solvent or mixture, DMF, room temperature), 5000 µg/mL; in data set [1] (organic solvent or mixture, THF, room temperature), < 1000 µg/mL; in data set [1] (water, H2O, room temperature), 47000 µg/mL. Besides, the CAPS-5 assessments entry in data set [2] (vs placebo-treated controls) is on record as “Significant improvements in CAPS-5 assessments”. In data set [2], the “daytime sleepiness as measured by ESS” value is “a significant improvement in lessening daytime sleepiness”. In addition, the “change in CAPS-5 assessment” value in data set [2] is “a significant mean reduction in CAPS-5 assessment”. For the same compound, the “clinician-rated functional impairment score as measured by SDS” value in data set [2] (vs placebo-treated controls) is on record as “a significant improvement in clinician-rated functional impairment score”. In addition, in data set [2] (vs placebo-treated controls), the “depression as measured by HAM-D” value was “a significant improvement depression”. In data set [3] (DVS, FIG. 26), the “relative humidity above which water uptake occurs” value is reported as “above 75 % RH”. Also, the “physical stability after moisture sorption-desorption analysis” value in data set [3] (between 5% RH and 95% RH) is recorded as “physically stable”. In addition, in data set [3] (between 5% RH and 95% RH), the water gain is given as 0.33%. Moreover, the water loss in data set [3] (between 95% RH and 5% RH) was 0.15%. The “appearance after humidity exposure” value in data set [3] (exposed to 75% RH for 2 hours) was “became tacky and stuck to the vial”.

For `CN[C@H](C)C(=O)c1ccc2c(c1)OCO2` [(R)-Methylone Hydrochloride, (R)-1-(Benzo[d][1,3]dioxol-5-yl)-2-(methylamino)propan-1-one Hydrochloride], in data set [2] (vs placebo-treated controls), the CAPS-5 assessments result is reported as “Significant improvements in CAPS-5 assessments”, the “clinician-rated functional impairment score as measured by SDS” value was “a significant improvement in clinician-rated functional impairment score” and the “depression as measured by HAM-D” value is on record as “a significant improvement depression”. Further, the adverse anxiogenic incidents result in data set [2] (PTSD participants, vs placebo-treated controls) was “without a significant increase in adverse anxiogenic incidents”. In data set [2], the “daytime sleepiness as measured by ESS” value is recorded as “a significant improvement in lessening daytime sleepiness” and the “change in CAPS-5 assessment” value was “a significant mean reduction in CAPS-5 assessment”.

Regarding `CN[C@@H](C)C(=O)c1ccc2c(c1)OCO2` [(S)-Methylone Hydrochloride, (S)-1-(Benzo[d][1,3]dioxol-5-yl)-2-(methylamino)propan-1-one Hydrochloride], in data set [2] (vs placebo-treated controls), the CAPS-5 assessments result is listed as “Significant improvements in CAPS-5 assessments”, the “clinician-rated functional impairment score as measured by SDS” value is “a significant improvement in clinician-rated functional impairment score” and the “depression as measured by HAM-D” value is listed as “a significant improvement depression”. For the same compound, the “total dosage of drug needed for significant mean reduction in CAPS-5, compared to racemic methylone-treated subgroup” value in data set [2] (PTSD participants) is “lower total dosage of drug”. Moreover, in data set [2], the “daytime sleepiness as measured by ESS” value is given as “a significant improvement in lessening daytime sleepiness” and the “change in CAPS-5 assessment” value is “a significant mean reduction in CAPS-5 assessment”.

Source of the values: US20240294488A1, “ISOTOPOLOGES, SALTS, CRYSTALLINE FORMS, STEREOISOMERS, OF METHYLONE AND ETHYLONE AND METHODS OF USE THEREOF” (Terran Biosciences Inc., priority 2021, published 2024).
